In paper PMC5789847, “Bismuth antimicrobial drugs serve as broad-spectrum metallo-β-lactamase inhibitors” (Nature Communications, 2018):

Assays:
NDM-BL21 = assay: Microdilution MIC assay; type: cell-based, E. coli
From the text: (§1) Other procedures were kept strictly the same.

NDM-Rosetta = assay: Microdilution MIC assay; type: cell-based, E. coli
From the text: as §1

C208A-Rosetta = assay: Microdilution MIC assay; type: cell-based, E. coli; settings: C208A-Rosetta
Protocol: For the test of C208A-Rosetta, the growth condition briefly goes as follow. Overnight culture of C208A-Rosetta was diluted into fresh LB medium (1000-fold) and regrew to OD ~0.6. The overexpression of NDM-1-C208A was induced by addition of 200 μM isopropyl β-D-1-thiogalactopyranoside (IPTG) for 18 h at 25 °C. The following susceptibility test was performed as described in the Microdilution MIC and MBC assay section in the methodology by using the resulting bacterial pellets with the supplementation of 200 μM IPTG.
as §1

IMP-4 = assay: IC50 enzyme inhibition assay; type: biochemical; settings: MER substrate
Protocol: Freshly prepared 50 nM of Zn2-NDM-1, Zn2-VIM-2, or Zn2-IMP-4 in 50 mM HEPES/Na pH 7.0, 100 mM NaCl were first incubated with various concentrations of CBS for 1 h at 25 °C, then mixed with equal volume of 0.2 mM MER. The assay was performed in a 1 cm quartz cuvette using the kinetic mode on a Varian Cary50 UV-visible spectrophotometer at 25 °C. The decrease in absorbance at 300 nm due to ring-opening of MER was monitored every second for a duration of 10 min until the reaction was completed. The initial rates were extracted and calculated from each reaction curves for fitting IC50 curves.

NDM-1 [1] = biological target: T1, NDM-1 (Klebsiella pneumoniae, UniProt C7C422); assay: Zinc displacement analysis by ICP-MS; type: binding; settings: Zn-bound NDM-1 20 μM + increasing CBS
Protocol: To monitor the displacement of Zn(II) by Bi(III), ICP-MS was employed to accurately quantify ^209Bi and ^66Zn contents in various purified NDM-1 samples. Purified Zn-bound-NDM-1 (20 μM) dissolved in trace-metal-free ICP-MS buffer containing 50 mM HEPES, pH 7.0, was incubated with various concentrations of CBS at 25 °C for 5 h with mild shaking. The samples were subsequently dialyzed in ICP-MS buffer to remove unbound-metal ions and were then acidified and subsequently analyzed using an ICP-MS spectrometer (Agilent 7500a, Agilent Technologies, CA, USA) with ^115In as an internal standard for ^209Bi, ^66Zn, and ^34S contents, which are used to quantify protein concentration.
Target sequence in this assay (C7C422 29-270, looked up, species assumed): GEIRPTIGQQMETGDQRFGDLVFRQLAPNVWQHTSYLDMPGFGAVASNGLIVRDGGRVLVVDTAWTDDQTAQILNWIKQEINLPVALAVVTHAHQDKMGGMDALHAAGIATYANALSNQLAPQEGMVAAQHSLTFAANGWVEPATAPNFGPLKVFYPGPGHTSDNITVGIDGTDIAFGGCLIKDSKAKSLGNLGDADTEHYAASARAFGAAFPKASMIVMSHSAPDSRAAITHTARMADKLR

NDM-HK = assay: Time kill assay; type: cell-based, E. coli; settings: MER 24 μg mL^-1 + CBS 64 μg mL^-1, 24 h, exponential phase
Protocol: Time kill assay was used to further explore the synergy between MER and Bi(III) compounds. In a typical assay, NDM-HK was cultured overnight and diluted 1:250 into LB broth at 37 °C for 3 h to reach log phase. The initial bacterial density was adjusted to ~10^7 CFU mL^−1 and then exposed to MER, Bi(III) compounds either alone or in combination. LB broth with no drugs served as a control. Aliquots of bacterial suspension were withdrawn at different time intervals (0, 1, 2, 4, 6, 8, and 24 h) for inspection of bacterial viability by agar plating. The concentrations of the drugs used in the test are 24 µg mL^−1 for MER, 64 µg mL^−1 for CBS, and 32 µg mL^−1 for Bi(NAC)3. Data from three independent experiments were averaged and plotted as log10 CFU mL^−1 vs. time (h) for each time point over 24 h. All assays were triplicated and performed three times on different days.

NDM-1-C208A = NDM-1-C208A (Klebsiella pneumoniae, UniProt C7C422, C208A); assay: Residual enzyme activity of NDM-1 variant with CBS at IC50; type: biochemical; settings: CBS at IC50 concentration, compared with WT NDM-1
NDM-1-C208A, sequence (C7C422 29-270 C208A): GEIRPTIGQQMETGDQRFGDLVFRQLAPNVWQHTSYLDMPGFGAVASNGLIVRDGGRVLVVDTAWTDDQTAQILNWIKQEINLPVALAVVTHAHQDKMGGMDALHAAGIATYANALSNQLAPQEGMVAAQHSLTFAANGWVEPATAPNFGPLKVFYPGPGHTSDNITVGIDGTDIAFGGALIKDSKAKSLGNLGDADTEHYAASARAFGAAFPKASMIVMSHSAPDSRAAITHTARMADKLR

NDM-1 [2] = biological target: T1, NDM-1; type: cell-based; parameters: endogenous in cells; host or cells: E. coli clinical isolate NDM-HK; settings: NDM-HK cultured with 100 µM compound; control 50.1 °C
Protocol: The cellular thermal shift assay was performed according to a standard method. Clinical isolate of NDM-1-positive E. coli (NDM-HK) was cultured overnight in the absence or presence of 100 µM Bi(III) compounds, i.e., CBS, Bi(NAC)3, Bi(NIT)3. The bacterial pellets were harvested and washed with PBS for 4 times. The cell suspensions were aliquoted into PCR tubes and heat treatment was performed at the designated temperature ranging from 40 °C to 70 °C for 3 min in a 96-well thermal cycler. The tubes were cooled immediately at room temperature for another 3 min after heating and the heating procedures were repeated for three cycles. For the cell lysis, the samples were frozen–thawed for two cycles in liquid nitrogen and thermal cycler set at 25 °C. The samples were vortexed gently after each cycle and were centrifuged at 20,000 × g to obtain the supernatant when the second cycle was finished. All the samples were subjected to western blot analysis for detection and quantification of NDM-1 content as described above.
Target sequence in this assay (C7C422 29-270 limits assumed): as the sequence (C7C422 29-270, looked up, species assumed) above

## colloidal bismuth subcitrate [CBS]
NDM-BL21; NDM-1 positive E. coli BL21(DE3)
  decrease in MIC of MER in combination with CBS: 8 fold
NDM-BL21; NDM-1 positive E. coli BL21(DE3), CBS concentration not stated
  MIC of MER in combination with CBS: 2 µg/mL
NDM-BL21; NDM-BL21
  MIC of MER in combination with CBS at 16 µg mL-1: 8 µg/mL
  MIC of MER in combination with CBS at 32 µg mL-1: 4 µg/mL
  MIC of MER in combination with CBS at 256 µg mL-1: 2 µg/mL
NDM-Rosetta; NDM-1 positive E. coli Rosetta(DE3)
  decrease in MIC of MER in combination with CBS: 8 fold
NDM-Rosetta; NDM-1 positive E. coli Rosetta(DE3), CBS concentration not stated
  MIC of MER in combination with CBS: 4 µg/mL
NDM-Rosetta; NDM-Rosetta
  MIC of MER in combination with CBS at 16 µg mL-1: 8 µg/mL
  MIC of MER in combination with CBS at 32 µg mL-1: 4 µg/mL
  MIC of MER in combination with CBS at 256 µg mL-1: 4 µg/mL
C208A-Rosetta
  MIC of MER in combination with CBS at 16 µg mL-1: 0.12 µg/mL
  MIC of MER in combination with CBS at 32 µg mL-1: 0.12 µg/mL
IMP-4; IMP-4 50 nM, 1 h preincubation
  IC50: 700 ± 80 nM
IMP-4; IMP-4, dose-dependent
  maximal inhibition of MBL activity: approximately 90%
NDM-1 [1]
  Bi(III) bound to the enzyme: 0.96 molar equivalents
  Zn(II) displaced from NDM-1: ca. 2.13 molar equivalents
NDM-HK
  lowering of NDM-HK population in time kill curves: more than 1000 fold
NDM-1-C208A
  inhibitory effect on NDM-1-C208A: much reduced inhibitory effect
NDM-1 [2]
  NDM-1 melting temperature, treated group: 48 °C
